For data set [1], the target named is T1, Tyrosinase (Agaricus bisporus, UniProt O42713).
T1 sequence (O42713 whole entry): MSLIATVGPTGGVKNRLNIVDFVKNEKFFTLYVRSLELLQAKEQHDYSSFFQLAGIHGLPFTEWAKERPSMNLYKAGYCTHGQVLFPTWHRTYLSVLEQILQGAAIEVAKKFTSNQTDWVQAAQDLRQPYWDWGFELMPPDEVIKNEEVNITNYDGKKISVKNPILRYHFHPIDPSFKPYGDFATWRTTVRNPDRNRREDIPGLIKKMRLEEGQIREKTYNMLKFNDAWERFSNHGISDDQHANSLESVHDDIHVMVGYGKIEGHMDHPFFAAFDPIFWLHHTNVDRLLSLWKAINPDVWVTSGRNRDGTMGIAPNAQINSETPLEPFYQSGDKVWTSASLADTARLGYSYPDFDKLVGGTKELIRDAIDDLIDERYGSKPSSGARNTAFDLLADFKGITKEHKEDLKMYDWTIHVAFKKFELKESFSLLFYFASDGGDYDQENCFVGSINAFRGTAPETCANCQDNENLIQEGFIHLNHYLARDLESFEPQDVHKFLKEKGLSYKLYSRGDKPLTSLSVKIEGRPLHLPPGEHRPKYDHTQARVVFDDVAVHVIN
Kind of data set: Inhibition of mushroom tyrosinase using L-DOPA as substrate.

Data set [2] is described as follows: Cytotoxicity against mouse B16-F10 cells assessed as cell viability at 50 ug/ml measured after 24 hrs by MTT assay relative to control. The data set is classed as cell-based. Particulars: at 50 µg/mL, read-out: Activity.
Data set [3] deals with B16-F10. The data set is described as follows: Cytotoxicity against mouse B16-F10 cells assessed as reduction in cell viability at 10 to 50 ug/ml measured after 24 hrs by MTT assay. Particulars: b16-f10, 24 h, dose 10-50 µg/ml. The data set is classed as cell-based. On the technique in general: Tetrazolium assays rely on reduction of a dye to a coloured formazan, in cell work by metabolically active cells.

The test system of data set [4] is B16-F10. The data set is described as follows: Cytotoxicity against mouse B16-F10 cells assessed as reduction in cell viability upto 10 ug/ml measured after 24 hrs by MTT assay. The note with it: b16-f10, 24 h, dose <=10 µg/ml. The data set is classed as cell-based.
The target in data set [5] is T1, Tyrosinase. The data set is described as follows: Noncompetitive inhibition of mushroom tyrosinase assessed as dissociation constant using L-DOPA as substrate by Lineweaver-Burk plot analysis.
The subject of data set [6] is B16-F10. Kind of data set: Anti-melanogenic activity in mouse B16-F10 cells assessed as reduction in alpha-MSH-induced tyrosinase expression at 20 to 30 uM incubated for 24 hrs by Western blot analysis. In kind it is functional, cell-based. Particulars: dose 20-30 µM. For orientation: Immunoblotting shows a protein as a band on a membrane.
Data set [7] deals with B16-F10. Kind of data set: Anti-melanogenic activity in mouse B16-F10 cells assessed as reduction in alpha-MSH-induced tyrosinase expression at 10 uM incubated for 24 hrs by Western blot analysis. In kind it is functional, cell-based.
Data set [8] has as its system B16-F10. Kind of data set: Anti-melanogenic activity against alpha-MSH-induced mouse B16-F10 cells assessed as reduction in melanin content at 10 uM incubated for 24 hrs […] relative to control. In kind it is functional.
Data set [9] relates to B16-F10. Kind of data set: Anti-melanogenic activity against alpha-MSH-induced mouse B16-F10 cells assessed as reduction in melanin content at 30 uM incubated for 24 hrs […] relative to control. The data set is classed as functional.
In data set [10] the test system is B16-F10. Kind of data set: Anti-melanogenic activity in mouse B16-F10 cells assessed as reduction in alpha-MSH-induced tyrosinase expression at 50 uM incubated for 24 hrs by Western blot analysis. The data set is classed as functional, cell-based.
Data set [11] deals with B16-F10. The data set is described as follows: Anti-melanogenic activity against alpha-MSH-induced mouse B16-F10 cells assessed as reduction in melanin content at 20 uM incubated for 24 hrs […] relative to control. The data set is classed as functional.
Data set [12] concerns B16-F10. Kind of data set: Anti-melanogenic activity against alpha-MSH-induced mouse B16-F10 cells assessed as reduction in melanin content at 50 uM incubated for 24 hrs […] relative to control. The data set is classed as functional.
Compound in data set [13]: COc1ccccc1-c1nnc(SCC(=O)Nc2ccccc2)o1
Kind of data set: Noncompetitive inhibition of mushroom tyrosinase assessed as Vmax at 0.0033 uM using L-DOPA as substrate by Lineweaver-Burk plot analysis. The note with it: Agaricus bisporus.

Compound in data set [14]: COc1ccccc1-c1nnc(SCC(=O)Nc2ccccc2)o1
The data set is described as follows: Noncompetitive inhibition of mushroom tyrosinase assessed as Km at 0.0033 uM using L-DOPA as substrate by Lineweaver-Burk plot analysis. Particulars: Agaricus bisporus.

Compound in data set [15]: COc1ccccc1-c1nnc(SCC(=O)Nc2ccccc2)o1
The data set is described as follows: Noncompetitive inhibition of mushroom tyrosinase assessed as Km at 0.0066 uM using L-DOPA as substrate by Lineweaver-Burk plot analysis. Particulars: Agaricus bisporus.

Compound in data set [16]: COc1ccccc1-c1nnc(SCC(=O)Nc2ccccc2)o1
The data set is described as follows: Noncompetitive inhibition of mushroom tyrosinase assessed as Vmax at 0.0066 uM using L-DOPA as substrate by Lineweaver-Burk plot analysis. Particulars: Agaricus bisporus.

Compound in data set [17]: COc1ccccc1-c1nnc(SCC(=O)Nc2ccccc2)o1
The data set is described as follows: Noncompetitive inhibition of mushroom tyrosinase assessed as Km at 0.0017 uM using L-DOPA as substrate by Lineweaver-Burk plot analysis. The note with it: Agaricus bisporus.

Compound in data set [18]: COc1ccccc1-c1nnc(SCC(=O)Nc2ccccc2)o1
The data set is described as follows: Noncompetitive inhibition of mushroom tyrosinase assessed as Vmax at 0.0017 uM using L-DOPA as substrate by Lineweaver-Burk plot analysis. Particulars: Agaricus bisporus.

The source made the active and inactive calls. The calls are words filed in the database; no cut-off is given here.

Consider 13 molecules from ChEMBL document CHEMBL4811286, “Novel 1,3,4-oxadiazole compounds inhibit the tyrosinase and melanin level: Synthesis, in-vitro, and in-silico studies” (Bioorg Med Chem, 2021).

Broadly, the IC50 is the concentration that inhibits the measured activity by half. The low end stands for inhibition by little substance, the high end for a need for much substance. Turning to `O=C(CSc1nnc(-c2ccccc2)o1)Nc1ccc(I)cc1`, on Tyrosinase [1], the IC50 was 85 nM.

In turn, `COc1ccccc1-c1nnc(SCC(=O)Nc2ccc(Br)cc2)o1` showed an IC50 at Tyrosinase [1] of 46 nM. Compared with the last molecule, the IC50 is about 1.8-fold lower.

Consider `COc1ccccc1-c1nnc(SCC(=O)Nc2ccc(I)cc2)o1`, for which, in [2], the viability at 24 h, 50 ug/ml worked out at 80%. This molecule showed an IC50 on Tyrosinase [1] of 23 nM.

With `COc1cccc(-c2nnc(SCC(=O)Nc3ccccc3)o2)c1`, the Activity result in the data set with B16-F10 [3] was “Toxic”; with B16-F10 [4], “Non-Toxic”. This molecule registered a concentration for half-maximal inhibition (IC50) against Tyrosinase [1] of 19 nM.

`COc1cccc(-c2nnc(SCC(=O)Nc3ccc(I)cc3)o2)c1` returned a half-inhibitory concentration (IC50) at Tyrosinase [1] of 88 nM.

In general, Ki refers to a measure of affinity in units of concentration, obtained from inhibition or displacement. One may read the inhibition as how much of the control response was suppressed. Take `COc1ccccc1-c1nnc(SCC(=O)Nc2ccccc2)o1`: the viability at 24 h, 50 ug/ml in data set [2] came to 80%. Further, the Ki at Tyrosinase [5] was 3.1 nM. Also, the result with B16-F10 [6], with B16-F10 [7] and with B16-F10 [10] was Active. For the same molecule, the inhibition at 10 µM with B16-F10 [8] was determined as 16%. The inhibition at 30 µM with B16-F10 [9] stood at 77%. Moreover, the inhibition at 20 µM in the data set with B16-F10 [11] stood at 62%. In addition, the inhibition at 50 µM in the data set with B16-F10 [12] was determined as 78%. In addition, the IC50 against Tyrosinase [1] amounted to 3 nM.

The molecule `COc1cccc(-c2nnc(SCC(=O)Nc3ccc(Br)cc3)o2)c1` yielded an IC50 at Tyrosinase [1] of 145 nM.

`O=C(CSc1nnc(-c2ccccc2)o1)Nc1ccc(F)cc1` displayed an IC50 against Tyrosinase [1] of 396 nM.

For `O=C(CSc1nnc(-c2ccccc2)o1)Nc1ccccc1`, on Tyrosinase [1], the IC50 came to 231 nM.

Consider `O=C(CSc1nnc(-c2ccccc2)o1)Nc1ccc(Br)cc1`, for which the IC50 against Tyrosinase [1] was determined as 39 nM.

For `COc1ccccc1-c1nnc(SCC(=O)Nc2ccc(F)cc2)o1`, in data set [2], the viability at 24 h, 50 ug/ml turned out to be 80%. The molecule further yielded a concentration for half-maximal inhibition (IC50) against Tyrosinase [1] of 18 nM.

`COc1cccc(-c2nnc(SCC(=O)Nc3ccc(F)cc3)o2)c1`: the results for the Activity entry in the data set on B16-F10 [3] and in the data set with B16-F10 [4] were “Toxic” and “Non-Toxic”, respectively. Besides, half-maximal inhibition against Tyrosinase [1] (IC50) was put at 27 nM.

B1: Tyrosinase (Agaricus bisporus), O42713 (protein)
chain: T1 sequence (O42713 whole entry)
What is called Km is the concentration of substrate that gives half-maximal velocity. For the molecule B1, the Vmax is 3.64 deltaA/s in [13], 2.27 deltaA/s in data set [16] and 4.97 deltaA/s in [18]. Moreover, the Michaelis constant (Km) in data set [14], in data set [15] and in data set [17] was 250 µM throughout.
